The text below walks through data of US20050197336A1 (Miikana Therapeutics Corporation, priority 2004, published 2005).

For assay [1], the system named is Histone deacetylase (HDAC), HeLa cell nuclear extract. Put plainly: In vitro fluorescent histone deacetylase assay (Biomol kit, HeLa cell nuclear extract). It is filed as biochemical. Particulars: compound at 100 μM; HeLa cell nuclear extract as HDAC source; substrate 50 μM; 10 min at room temperature. As to the method: Histone deacetylase (HDAC) activity assays were performed using the HDAC fluorescent activity assay/drug discovery kit (Biomol Research Laboratories, Plymouth Meeting, Pa.) essentially according to the manufacturer's instructions. The included HeLa cell nuclear extract, which contains a mosaic of HDAC enzymes and other nuclear factors, was used as the source of HDAC activity. The final substrate concentration in the assay mixture was 50 μM. The reaction was allowed to proceed for 10 min at room temperature before stopping the reaction. Test compounds were prepared as 20 mM stock solutions in DMSO (Molecular Biology grade, Sigma-Aldrich Co. St. Louis, Mo.) and stored at −70° C. Serial dilutions of test compounds were prepared in assay buffer immediately prior to testing. DMSO was determined in a separate trial to have no significant effect on the activity of this assay at concentrations up to 5%; the final DMSO concentration in the wells was no more than 2% and therefore DMSO effects were safely neglected. Assays were performed in white polystyrene 96-well half-area assay plates (Corning, Corning, N.Y.) and measured on a Wallace 1420 fluorescent plate reader (Wallac Oy, Turku, Finland) with an excitation wavelength of 355 nm, an emission wavelength of 460 nm, and a 1 sec signal averaging time.

A further assay relates to MCF7 cells. Put plainly: Whole cell cytotoxicity assay: Sulforhodamine B. In kind it is cell-based, human. The following applies: compound at 100 μM, MCF7 cell growth, 48 hours with drug, SRB staining; for inhibition at 100 µM: Homo sapiens. As to the method: The following procedure can be found on the Developmental Therapeutics Program NCI/NIH web site at http://dtp.nci.nih.gov/brancehes/btb/ivclsp.html.
1. Human tumor cell lines of HT29, A549 and MCF7 are grown in DMEM containing 10% fetal bovine serum and 2 mM L-glutamine. Cells are plated in a 96 well plate at a density of 5000 cells per well in 100 μL of growth medium and incubated at 37° C., 5% CO2, for 24 hours prior to the addition of experimental compounds.
2. Experimental drugs are solubilized in DMSO for a final concentration of 20 mM immediately prior to use. Drugs are further diluted in growth media for a total of nine drug concentrations and a growth control. At the 24 hour time point, one plate of cells is fixed in situ with TCA as a measurement of the cell population at time zero, or the time of drug addition.
3. The plates are further incubated with drug for an additional 48 hours.
4. The cells are fixed in situ by gently aspirating off the culture media and then adding 50 μL of ice cold 10% TCA per well and incubated at 4° C. for 60 minutes. The plates are washed with tap water five times and allowed to air dry for 5 minute.
5. 50 μL of a 0.4% (w/v) Sulforhodamine B solution in 1% (v/v) acetic acid is added per well and incubated for 30 minutes at room temperature.
6. Following staining, plates are washed five times with 1% acetic acid to remove any unbound dye and then allowed to air dry for 5 minutes.
7. Stain is solubilized with 100 μL of 10 mM Tris pH 10.5 per well and placed on an orbital rotator for 5 minutes.
8. Absorbance is read at 570 nm.
(In general: The SRB assay estimates cell density from bound dye.)

As for `O=C(NO)c1cnc(N2CCN(S(=O)(=O)c3ccc(-c4ccc(CN5CCCC5)s4)cc3)CC2)s1` [Example 88], in assay [1], the “% inhibition HDAC @ 100 μM” value is 99%. Also, in the assay on MCF7 cells, at 100 µM the inhibition was 93.8%.
The like results for `Cc1cccc(S(=O)(=O)N2CCN(c3ncc(C(=O)NO)s3)CC2)c1` [Example 22, 2-[4-(3-methylphenylsulfonyl)-piperazin-1-yl]-thiazole-5-carboxylic acid hydroxyamide] were, in that order, 100% and 98%.
In the same order, the values of `O=C(NO)c1cnc(N2CCN(S(=O)(=O)c3ccc(F)c(F)c3)CC2)s1` [Example 36, 2-[4-(3,4-difluorophenylsulfonyl)-piperazin-1-yl]-thiazole-5-carboxylic acid hydroxyamide] are 98% and 98.2%.
In the same order, the values of `O=C(NO)c1cnc(N2CCN(S(=O)(=O)c3cccc(Cl)c3)CC2)s1` [Example 18, 2-[4-(3-chlorophenylsulfonyl)-piperazin-1-yl]-thiazole-5-carboxylic acid hydroxyamide] are 95% and 96.6%.
For the compound `CC(C)N(C)Cc1cccc(-c2ccc(S(=O)(=O)N3CCN(c4ncc(C(=O)NO)s4)CC3)cc2)c1` [Example 87, 2-{4-[(3′-[isopropyl(methyl)amino]methyl]-1,1′-biphenylsulfonyl]-piperazin-1-yl}-1,3-thiazole-5-carboxylic acid hydroxyamide], the “% inhibition HDAC @ 100 μM” value in assay [1] was found to be 99%. The inhibition – broadly, the percentage by which the read-out fell short of the control – at 100 µM in the assay with MCF7 cells came to 97.7%.
In the same order, the values of `O=C(NO)c1cnc(N2CCN(S(=O)(=O)c3ccccc3F)CC2)s1` [Example 34, 2-[4-(2-fluorophenylsulfonyl)-piperazin-1-yl]-thiazole-5-carboxylic acid hydroxyamide] are 92% and 97.7%.
Turning to `CN(C)Cc1ccc(S(=O)(=O)N2CCN(c3ncc(C(=O)NO)s3)CC2)cc1` [Example 95], in assay [1], the “% inhibition HDAC @ 100 μM” value is listed as 98%. The compound further showed an inhibition at 100 µM in the assay on MCF7 cells of 96.8%.
In the same order, the values of `O=C(NO)c1cnc(N2CCN(S(=O)(=O)c3ccccc3)CC2)s1` [Example 12, 2-[4-(benzenesulfonyl)-piperazin-1-yl]-thiazole-5-carboxylic acid hydroxyamide] are 98% and 95.5%.
The like results for `O=C(NO)c1cnc(N2CCN(S(=O)(=O)c3ccccc3C(F)(F)F)CC2)s1` [Example 37, 2-[4-(2-trifluoromethylphenylsulfonyl)-piperazin-1-yl]-thiazole-5-carboxylic acid hydroxyamide] were, in that order, 99% and 98%.
In the same order, the values of `COc1ccc(-c2ccc(S(=O)(=O)N3CCN(c4ncc(C(=O)NO)s4)CC3)cc2)cc1` [Example 63] are 98% and 93.3%.
For `O=C(NO)c1cnc(N2CCN(S(=O)(=O)c3ccc(-c4ccco4)cc3)CC2)s1` [Example 59, 2-(4-{[4-(2-furyl)phenyl]sulfonyl}piperazin-1-yl)-1,3-thiazole-5-carboxylic acid hydroxyamide], the “% inhibition HDAC @ 100 μM” value in assay [1] is 99%. Further, the inhibition at 100 µM in the assay with MCF7 cells was determined as 98.9%.
In the case of `O=C(NO)c1cnc(N2CCN(S(=O)(=O)c3ccc(-c4ccccc4)cc3)CC2)s1` [Example 9, 2-[4-(biphenyl-4-sulfonyl)-piperazin-1-yl]-thiazole-5-carboxylic acid hydroxyamide], the “% inhibition HDAC @ 100 μM” value in assay [1] worked out at 97%. This compound yielded an inhibition at 100 µM in the assay with MCF7 cells of 97.7%.
Regarding `O=C(NO)c1cnc(N2CCN(S(=O)(=O)c3ccc(CN4CCOCC4)cc3)CC2)s1` [Example 106], in assay [1], the “% inhibition HDAC @ 100 μM” value is 99%. In the assay with MCF7 cells, the inhibition at 100 µM came to 82.3%.
Take `O=C(NO)c1cnc(N2CCN(S(=O)(=O)c3ccc(-c4ccc(F)cc4)cc3)CC2)s1` [Example 56, 2-{4-[(4′-fluoro-1,1′-biphenyl-4-yl)sulfonyl]piperazin-1-yl}-1,3-thiazole-5-carboxylic acid hydroxyamide]: the “% inhibition HDAC @ 100 μM” value in assay [1] is 98%. The inhibition at 100 µM in the assay on MCF7 cells was determined as 96.9%.
The like results for `CN(C)C(=O)c1ccc(-c2ccc(S(=O)(=O)N3CCN(c4ncc(C(=O)NO)s4)CC3)cc2)cc1` [Example 68, 2-[4-(4′-N,N-dimethylcarboxamido-1,1′-biphenylsulfonyl)piperazin-1-yl]-1,3-thiazole-5-carboxylic acid hydroxyamide] were, in that order, 99% and 84.7%.
In the same order, the values of `CCCc1ccc(S(=O)(=O)N2CCN(c3ncc(C(=O)NO)s3)CC2)cc1` [Example 23, 2-[4-(4-n-propylphenylsulfonyl)-piperazin-1-yl]-thiazole-5-carboxylic acid hydroxyamide] are 99% and 96.7%.
Turning to “2-(4-{4-[(3-(pyrrolidin-1-ylmethyl)-2-furyl]phenylsulfonly}piperazin-1-yl)-1,3-thiazole-5-carboxylic acid hydroxyamide [Example 83]”, the “% inhibition HDAC @ 100 μM” value in assay [1] was found to be 100%. The “% inhibition MCF7 cells @ 100 μM” value in the assay on MCF7 cells was determined as 98%.
Regarding `Cn1cnc(S(=O)(=O)N2CCN(c3ncc(C(=O)NO)s3)CC2)c1` [Example 102], in assay [1], the “% inhibition HDAC @ 100 μM” value was found to be 99%. The inhibition at 100 µM in the assay on MCF7 cells amounted to 84%.
In the same order, the values of `O=C(NO)c1cnc(N2CCN(S(=O)(=O)c3ccc(F)cc3)CC2)s1` [Example 11, 2-[4-(4-fluoro-benzenesulfonyl)-piperazin-1-yl]-thiazole-5-carboxylic acid hydroxyamide] are 98% and 96.7%.
Take `O=C(NO)c1cnc(N2CCN(S(=O)(=O)c3ccc(-c4cccs4)cc3)CC2)s1` [Example 65, 2-{4-[(4-thien-2-ylphenyl)sulfonyl]piperazin-1-yl}-1,3-thiazole-5-carboxylic acid hydroxamide]: in assay [1], the “% inhibition HDAC @ 100 μM” value amounted to 99%. Moreover, in the assay on MCF7 cells, testing at 100 µM gave an inhibition of 95%.
Consider `O=C(NO)c1cnc(N2CCN(S(=O)(=O)c3ccc(CN4CCCC4)cc3)CC2)s1` [Example 105], for which the “% inhibition HDAC @ 100 μM” value in assay [1] is recorded as 99%. Further, the inhibition at 100 µM in the assay with MCF7 cells came out at 93%.
For `O=C(NO)c1cnc(N2CCN(S(=O)(=O)c3ccc(N4CCCC4)cc3)CC2)s1` [Example 13, 2-[4-(4-pyrolidinylbenzenesulfonyl)-piperazin-1-yl]-thiazole-5-carboxylic acid hydroxyamide], the “% inhibition HDAC @ 100 μM” value in assay [1] came to 99%. Further, the inhibition at 100 µM in the assay on MCF7 cells was 98.9%.
`CC1CCN(Cc2cccc(-c3ccc(S(=O)(=O)N4CCN(c5ncc(C(=O)NO)s5)CC4)cc3)c2)CC1.Cl` [Example 76]: in assay [1], the “% inhibition HDAC @ 100 μM” value came to 99%. Besides, in the assay on MCF7 cells, the inhibition at 100 µM amounted to 98%.
The like results for `CN(C)Cc1cccc(S(=O)(=O)N2CCN(c3ncc(C(=O)NO)s3)CC2)c1` [Example 97] were, in that order, 99% and 83.9%.
The like results for `Cl.O=C(NO)c1cnc(N2CCN(S(=O)(=O)c3ccc(-c4cccc(CN5CCCC5)c4)cc3)CC2)s1` [Example 75] were, in that order, 100% and 98.6%.
Turning to `Cc1noc(C)c1S(=O)(=O)N1CCN(c2ncc(C(=O)NO)s2)CC1` [Example 27, 2-[4-(3,5-dimethylisoxazolesulfonyl)-pipiperazin-1-yl]-thiazole-5-carboxylic acid hydroxyamide], the “% inhibition HDAC @ 100 μM” value in assay [1] is 99%. At 100 µM the inhibition with MCF7 cells was 88.5%.
In the same order, the values of `O=C(NO)c1cnc(N2CCN(S(=O)(=O)CCc3ccccc3)CC2)s1` [Example 94, 2-[4-(phenethylsulfonyl)-piperazin-1-yl]-thiazole-5-carboxylic acid hydroxyamide] are 98% and 90.6%.
The like results for `O=C(NO)c1cnc(N2CCN(S(=O)(=O)c3ccc(-c4ccsc4CN4CCCC4)cc3)CC2)s1` [Example 82] were, in that order, 99% and 92.7%.
In the same order, the values of `Cc1cccc(Cl)c1S(=O)(=O)N1CCN(c2ncc(C(=O)NO)s2)CC1` [Example 38] are 100% and 97.8%.
